Measurements as given in patent publication US6875760B2 (Novo Nordisk A/S, priority 1999, dated 2005).

Target: T1, cloned human glucagon receptor (Homo sapiens, UniProt P47871)
T1 construct: expressed in transfected cells; plasma membrane preparation
Experiment: Glucagon Binding Assay (II)
Conditions: for inhibition at 1 µM: screened at 1 μM, library compounds, read-out: displacement of the glucagon tracer when screened at 1 μM concentration in the glucagon binding assay II; for IC50: plasma membranes of BHK cells expressing the receptor, read-out: Glu Bd Assay (II) IC50

T1 sequence (P47871 26-477): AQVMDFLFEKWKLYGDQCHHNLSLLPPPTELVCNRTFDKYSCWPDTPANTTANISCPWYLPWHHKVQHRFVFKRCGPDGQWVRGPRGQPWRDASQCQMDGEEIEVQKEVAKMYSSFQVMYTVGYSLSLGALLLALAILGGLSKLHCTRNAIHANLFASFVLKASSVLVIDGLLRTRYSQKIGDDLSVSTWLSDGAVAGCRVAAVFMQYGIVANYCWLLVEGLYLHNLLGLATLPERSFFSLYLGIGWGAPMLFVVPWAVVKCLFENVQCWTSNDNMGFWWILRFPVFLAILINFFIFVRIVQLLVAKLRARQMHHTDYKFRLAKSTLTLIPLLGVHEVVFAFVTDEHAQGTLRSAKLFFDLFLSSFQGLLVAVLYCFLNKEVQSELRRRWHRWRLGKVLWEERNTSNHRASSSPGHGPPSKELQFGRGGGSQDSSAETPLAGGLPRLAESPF

Row | SMILES | inhibition at 1 µM [%] | IC50 [nM]
1 | Cc1ccc(CN(CCc2ccc(Cl)cc2Cl)Cc2ccc(C(=O)NCCC(=O)O)s2)cc1 [Example 147, 3-(5-{[(2,4-Dichlorophenylethyl)-(4-methylbenzyl)amino]methyl}thiophene-2-carbonylamino)propionic acid] | > 50 | 
2 | O=C(O)CCNC(=O)c1ccc(CN(Cc2ccc(Cl)cc2)Cc2ccc(Cl)cc2)s1 [Example 148, 3-(5-{[Bis-(4-chlorobenzyl)amino]methyl}thiophene-2-carbonylamino)propionic acid] | > 50 | 
3 | COc1ccc(CN(Cc2ccc(C(=O)NCCC(=O)O)cc2)Cc2ccc(C(C)C)cc2)cc1OC [Example 149, 3-(4-{[(3,4-Dimethoxybenzyl)-(4-isopropylbenzyl)amino]methyl}benzoylamino)propionic acid] | > 50 | 
4 | COc1ccc(CN(Cc2ccc(C(C)C)cc2)Cc2ccc(C(=O)NCCC(=O)O)s2)cc1OC [Example 150, 3-(5-{[(3,4-Dimethoxybenzyl)-(4-isopropylbenzyl)amino]methyl}thiophene-2-carbonylamino)propionic acid] | > 50 | 
5 | COc1ccc(CN(Cc2ccc(C(=O)NCCC(=O)O)cc2)Cc2cccc(Oc3cccc(C(F)(F)F)c3)c2)cc1OC [Example 151, 3-(4-{[(3,4-Dimethoxybenzyl)-(3-[3-trifluoromethylphenoxy]benzyl)amino]methyl}benzoylamino)propionic acid] | > 50 | 
6 | COc1ccc(CN(Cc2cccc(Oc3cccc(C(F)(F)F)c3)c2)Cc2ccc(C(=O)NCCC(=O)O)s2)cc1OC [Example 152, 3-(5-{[(3,4-Dimethoxybenzyl)-(3-[3-trifluoromethylphenoxy]benzyl)amino]methyl}thiophene-2-carbonylamino)propionic acid] | > 50 | 
7 | Cc1ccc(CN(CCc2ccc(Cl)cc2Cl)Cc2ccc(C(=O)NCCC(=O)O)cc2)cc1 [Example 153] |  | 454
8 | O=C(O)CCNC(=O)c1ccc(CN(Cc2cccc(Cl)c2)Cc2cccc(Cl)c2)cc1 [Example 154, 3-(4-{[Bis-(3-chlorobenzyl)amino]methyl}benzoylamino)propionic acid] |  | 167
9 | O=C(O)CCNC(=O)c1ccc(CN(CCC(c2ccccc2)c2ccccc2)Cc2ccc3c(c2)OCO3)cc1 [Example 155, 3-(4-{[(3,3-Diphenylpropyl)-(3,4-methylenedioxybenzyl)amino]methyl}benzoylamino)propionic acid] |  | 823
10 | CC(C)(C)C1CCC(N(Cc2ccc(C(=O)NCCc3nnn[nH]3)cc2)C(=O)Nc2ccc(OC(F)(F)F)cc2)CC1 (centres unmarked) [Example 156, 4-[1-(4-tert-Butylcyclohexyl)-3-(4-trifluoromethoxyphenyl)ureidomethyl]-N-[2-(1H-tetrazol-5-yl)ethyl]benzamide] |  | 146
11 | CC(C)(C)C1CCC(N(Cc2ccc(C(=O)NCCc3nnn[nH]3)cc2)C(=O)Nc2cc(Cl)cc(Cl)c2)CC1 (centres unmarked) [Example 157, 4-[1-(4-tert-Butylcyclohexyl)-3-(3,5-dichlorophenyl)ureidomethyl]-N-[2-(1H-tetrazol-5-yl)ethyl]benzamide] |  | 250
12 | CC(C)(C)[C@H]1CC[C@H](N(Cc2ccc(C(=O)Nc3nn[nH]n3)cc2)C(=O)Nc2ccc(OC(F)(F)F)cc2)CC1 [Example 158, 4-[1-(trans-4-tert-Butylcyclohexyl)-3-(4-trifluoromethoxyphenyl)ureidomethyl]-N-(2H-tetrazol-5-yl)benzamide] |  | 7
13 | CC(C)(C)C1CCC(N(Cc2ccc(C(=O)Nc3nnn[nH]3)cc2)C(=O)Nc2ccc(Cl)cc2)CC1 (centres unmarked) [Example 159, 4-[1-(4-tert-Butylcyclohexyl)-3-(4-chlorophenyl)ureidomethyl]-N-(1H-tetrazol-5-yl)benzamide] | > 50 | 
14 | CC(C)(C)C1CCC(N(Cc2ccc(C(=O)Nc3ccc4c(c3)OCCO4)cc2)C(=O)Nc2ccc(Cl)cc2)CC1 (centres unmarked) [Example 160, 4-[1-(4-tert-Butylcyclohexyl)-3-(4-chlorophenyl)ureidomethyl]-N-(2,3-dihydro-1,4-benzodioxin-6-yl)benzamide] | > 50 | 
15 | CC(C)(C)C1CCC(N(Cc2ccc(C(=O)Nc3ccc4c(c3)OCCO4)cc2)C(=O)Nc2ccc(OC(F)(F)F)cc2)CC1 (centres unmarked) [Example 161, 4-[1-(4-tert-Butylcyclohexyl)-3-(4-trifluoromethoxyphenyl)ureidomethyl]-N-(2,3-dihydro-1,4-benzodioxin-6-yl)benzamide] | > 50 | 
16 | CC(C)(C)C1CCC(N(Cc2ccc(C(=O)Nc3ccc(O)c([N+](=O)[O-])c3)cc2)C(=O)Nc2ccc(Cl)cc2)CC1 (centres unmarked) [Example 162, 4-[1-(4-tert-Butylcyclohexyl)-3-(4-chlorophenyl)ureidomethyl]-N-(4-hydroxy-3-nitrophenyl)benzamide] | > 50 | 

Row | SMILES | inhibition at 1 µM [%] | IC50 [nM]
17 | CC(C)(C)C1CCC(N(Cc2ccc(C(=O)Nc3ccc(O)c([N+](=O)[O-])c3)cc2)C(=O)Nc2ccc(OC(F)(F)F)cc2)CC1 (centres unmarked) [Example 163, 4-[1-(4-tert-Butylcyclohexyl)-3-(4-trifluoromethoxyphenyl)ureidomethyl]-N-(4-hydroxy-3-nitrophenyl)benzamide] | > 50 | 
18 | CC(C)(C)C1CCC(N(Cc2ccc(C(=O)Nc3ncnc4[nH]ncc34)cc2)C(=O)Nc2ccc(Cl)cc2)CC1 (centres unmarked) [Example 164, 4-[1-(4-tert-Butylcyclohexyl)-3-(4-chlorophenyl)ureidomethyl]-N-(1H-pyrazolo[3,4-d]pyrimidin-4-yl)benzamide] | > 50 | 
19 | CC(C)(C)C1CCC(N(Cc2ccc(C(=O)Nc3ncnc4[nH]ncc34)cc2)C(=O)Nc2ccc(OC(F)(F)F)cc2)CC1 (centres unmarked) [Example 165, 4-[1-(4-tert-Butylcyclohexyl)-3-(4-trifluoromethoxyphenyl)ureidomethyl]-N-(1H-pyrazolo[3,4-d]pyrimidin-4-yl)benzamide] | > 50 | 
20 | CC(C)(C)C1CCC(N(Cc2ccc(C(=O)Nc3ccc4c(c3)C(=O)NC4=O)cc2)C(=O)Nc2ccc(Cl)cc2)CC1 (centres unmarked) [Example 166, 4-[1-(4-tert-Butylcyclohexyl)-3-(4-chlorophenyl)ureidomethyl]-N-(1,3-dioxo-2,3-dihydro-1H-isoindol-5-yl)benzamide] | > 50 | 
21 | CC(C)(C)C1CCC(N(Cc2ccc(C(=O)Nc3ccc4c(c3)OCCO4)cc2)C(=O)Nc2cc(Cl)cc(Cl)c2)CC1 (centres unmarked) [Example 168, 4-[1-(4-tert-Butylcyclohexyl)-3-(3,5-dichlorophenyl)ureidomethyl]-N-(2,3-dihydro-1,4-benzodioxin-6-yl)benzamide] | > 50 | 
22 | CC(C)(C)C1CCC(N(Cc2ccc(C(=O)Nc3ccc(O)c([N+](=O)[O-])c3)cc2)C(=O)Nc2cc(Cl)cc(Cl)c2)CC1 (centres unmarked) [Example 169, 4-[1-(4-tert-Butylcyclohexyl)-3-(3,5-dichlorophenyl)ureidomethyl]-N-(4-hydroxy-3-nitrophenyl)benzamide] | > 50 | 
23 | CC(C)(C)C1CCC(N(Cc2ccc(C(=O)Nc3ncnc4[nH]ncc34)cc2)C(=O)Nc2cc(Cl)cc(Cl)c2)CC1 (centres unmarked) [Example 170, 4-[1-(4-tert-Butylcyclohexyl)-3-(3,5-dichlorophenyl)ureidomethyl]-N-(1H-pyrazolo[3,4-d]pyrimidin-4-yl)benzamide] | > 50 | 
24 | CC(C)(C)C1CCC(N(Cc2ccc(C(=O)Nc3ccc4c(c3)C(=O)NC4=O)cc2)C(=O)Nc2cc(Cl)cc(Cl)c2)CC1 (centres unmarked) [Example 171, 4-[1-(4-tert-Butylcyclohexyl)-3-(3,5-dichlorophenyl)ureidomethyl]-N-(1,3-dioxo-2,3-dihydro-1H-isoindol-5-yl)benzamide] | > 50 | 
25 | CC(C)(C)C1CCC(N(Cc2ccc(C(=O)Nc3nn[nH]n3)cc2)C(=O)Nc2cc(Cl)cc(Cl)c2)CC1 (centres unmarked) [Example 172, 4-[1-(4-tert-Butylcyclohexyl)-3-(3,5-dichlorophenyl)ureidomethyl]-N-(2H-tetrazol-5-yl)benzamide] |  | 7
26 | CC(C)(C)C1CCC(N(Cc2ccc(C(=O)NCc3nn[nH]n3)cc2)C(=O)Nc2cc(Cl)cc(Cl)c2)CC1 (centres unmarked) [Example 173, 4-[1-(4-tert-Butylcyclohexyl)-3-(3,5-dichlorophenyl)ureidomethyl]-N-(2H-tetrazol-5-ylmethyl)benzamide] |  | 23
27 | CC(C)(C)[C@H]1CC[C@H](N(Cc2ccc(C(=O)Nc3nn[nH]n3)cc2)C(=O)Nc2cc(Cl)cc(Cl)c2)CC1 [Example 174, 4-[1-(trans-4-tert-Butylcyclohexyl)-3-(3,5-dichlorophenyl)ureidomethyl]-N-(2H-tetrazol-5-yl)benzamide] |  | 11
28 | CC1CC(N(Cc2ccc(C(=O)NCCC(=O)O)cc2)C(=O)Nc2cc(Cl)cc(Cl)c2)CC(C)(C)C1 (centres unmarked) [Example 176, 3-{4-[3-(3,5-Dichlorophenyl)-1-(3,3,5-trimethylcyclohexyl)ureidomethyl]benzoylamino)propionic acid] |  | 641
29 | CC1CC(C)CC(N(Cc2ccc(C(=O)NCCC(=O)O)cc2)C(=O)Nc2cc(Cl)cc(Cl)c2)C1 (centres unmarked) [Example 177, 3-{4-[3-(3,5-Dichlorophenyl)-1-(3,5-dimethylcyclohexyl)ureidomethyl]benzoylamino)propionic acid] |  | 454
30 | O=C(O)CCNC(=O)c1ccc(CN(C(=O)Nc2ccc(OC(F)(F)F)cc2)C2CCC3(CC2)SCCS3)cc1 [Example 178, 3-{4-[1-(1,4-Dithiaspiro[4.5]dec-8-yl)-3-(4-trifluoromethoxyphenyl)ureidomethyl]benzoylamino)propionic acid] |  | 999
31 | O=C(O)CCNC(=O)c1ccc(CN(CCc2cccc(Cl)c2)C(=O)Nc2ccc(OC(F)(F)F)cc2)cc1 [Example 180, 3-{4-[1-[2-(3-Chlorophenyl)ethyl]-3-(4-trifluoromethoxyphenyl)ureidomethyl]benzoylamino}propionic acid] | > 50 | 
32 | O=C(O)CCNC(=O)c1ccc(CN(CCc2cccc(Cl)c2)C(=O)Nc2ccc(Cl)c(C(F)(F)F)c2)cc1 [Example 181, 3-{4-[1-[2-(3-Chlorophenyl)ethyl]-3-(4-chloro-3-trifluoromethylphenyl)ureidomethyl]benzoylamino}propionic acid] | > 50 | 
